Like-named read-outs stand apart in the source and are kept apart here.
System: C. albicans R303
Assay: mouse candidiasis infection model, IP administration, kidney fungal burden
Type: in vivo
Conditions: for log reduction at 0.5 mg/kg / log reduction at 1.5 mg/kg / log reduction at 4.5 mg/kg / log reduction at 5 mg/kg: Candida albicans, R303, ip, 24 h, read-out: Difference from 24-h control; for Mean log10 CFU/kidneys (±SEM) / Mean log10 CFU/kidneys (±SD): kidneys 24 h after infection; for log reduction at 5 mg/kg / Mean log10 CFU/kidneys (±SD): First run, IP 5 mg/kg; for Mean log10 CFU/kidneys (±SD): neutropenic mice; for overall performance in reducing C. albicans CFUs in the kidneys of the mice: conclusion over all runs
Protocol: The objective of these studies was to evaluate the efficacy of test compounds in the mouse candidiasis infection model. Amounts of test articles are uncorrected.
The strain, C. albicans R303 was transferred from frozen storage onto Sabauroud dextrose agar (SDA) plates and grown for ˜24 hr at 35° C. The inoculum was prepared by transferring colonies from the plate to phosphate buffered saline (PBS) and the concentration adjusted to approximately 10^6 CFU/mL with the aid of a spectrophotometer. The stock was diluted 1:9 to prepare the inoculum. Prior to each run the concentration was verified using the dilution plate count method.
Female CD-1 mice were used in this study. The animals were approximately seven-weeks-old at the start of the study and weighed about 15-30 g.
Mice were made neutropenic with IP injections of cyclophosphamide (150 mg/kg in 10 mL/kg) at 4 and 1 day before inoculation. Each animal was inoculated with the appropriate concentration by injecting 0.1 mL of inoculum into a tail vein. The test compounds were administered IP at 2 hr after infection.
In a typical procedure, the kidneys were collected from four mice in control group 1 (untreated) at 2 hr after infection, and from another four mice in control group 2 (untreated) at 24 hr after infection. Kidneys were removed aseptically from each mouse and were combined in a sterile tube. An aliquot (2 mL) of sterile PBS was added to each tube and the contents homogenized with a tissue homogenizer (Polytron 3100). Serial dilutions of the tissue homogenates were conducted and 0.1 mL aliquots were spread on SDA plates and the plates incubated at 35° C. overnight. The CFU/kidneys were determined from colony counts. Data were analyzed using one-way ANOVA with either the Tukey-Kramer Multiple Comparisons Test or Dunnett Test (GraphPad InStat version 3.06, GraphPad Software, San Diego, Calif.).
The data reported below are the average of four mice. Each run included a separate control and each is tabulated separately.

| Structure (SMILES) | overall performance in reducing C. albicans CFUs in the kidneys of the mice | log reduction at 0.5 mg/kg (Fourth run, IP 0.5 mg/kg) | log reduction at 1.5 mg/kg (Fourth run, IP 1.5 mg/kg) | Mean log10 CFU/kidneys (±SEM) (Fourth run, IP 0.5 mg/kg) | Mean log10 CFU/kidneys (±SEM) (Fourth run, IP 1.5 mg/kg) | other results |
| --- | --- | --- | --- | --- | --- | --- |
| CC[C@H](C)C[C@H](C)CCCCCCCCC(=O)N[C@H]1C[C@@H](O)[C@@H](NCCN)NC(=O)[C@@H]2[C@@H](O)CCN2C(=O)[C@H]([C@H](O)CCN)NC(=O)[C@H]([C@H](O)[C@@H](O)c2ccc(O)cc2)NC(=O)[C@@H]2C[C@@H](O)CN2C(=O)[C@H]([C@@H](C)O)NC1=O [caspofungin, reference compound] | – | – | – | – | – | log reduction at 0.5 mg/kg (Third run, IP 0.5 mg/kg): 4.88; log reduction at 1.5 mg/kg (Third run, IP 1.5 mg/kg): 4.48; log reduction at 4.5 mg/kg (Third run, IP 4.5 mg/kg): 5.2; Mean log10 CFU/kidneys (±SEM) (Third run, IP 0.5 mg/kg): 0.33 ± 0.33 log10 CFU/kidneys; Mean log10 CFU/kidneys (±SEM) (Third run, IP 1.5 mg/kg): 0.73 ± 0.42 log10 CFU/kidneys; Mean log10 CFU/kidneys (±SEM) (Third run, IP 4.5 mg/kg): 0.00 ± 0.00 log10 CFU/kidneys |
| CCCCCOc1ccc(-c2ccc(-c3ccc(C(=O)N[C@H]4C[C@@H](O)C(OCCN(C)C)NC(=O)C5[C@@H](O)[C@@H](C)CN5C(=O)C([C@@H](C)O)NC(=O)C([C@H](O)[C@@H](O)c5ccc(O)cc5)NC(=O)C5C[C@@H](O)CN5C(=O)C([C@@H](C)O)NC4=O)cc3)cc2)cc1 (stereo partly shown) [compound 2] | performed moderately | – | – | – | – | log reduction at 5 mg/kg: 3.6; Mean log10 CFU/kidneys (±SD): 1.60 ± 0.35 log10 CFU/kidneys |
| CCCCCOc1ccc(-c2ccc(-c3ccc(C(=O)N[C@H]4C[C@@H](O)C(OCCNC)NC(=O)C5[C@@H](O)[C@@H](C)CN5C(=O)C([C@@H](C)O)NC(=O)C([C@H](O)[C@@H](O)c5ccc(O)cc5)NC(=O)C5C[C@@H](O)CN5C(=O)C([C@@H](C)O)NC4=O)cc3)cc2)cc1 (stereo partly shown) [compound 3] | performed moderately | – | – | – | – | log reduction at 5 mg/kg: 3.63; Mean log10 CFU/kidneys (±SD): 1.57 ± 0.20 log10 CFU/kidneys |
| CCCCCOc1ccc(-c2ccc(-c3ccc(C(=O)N[C@H]4C[C@@H](O)C(OCCN)NC(=O)C5[C@@H](O)[C@@H](C)CN5C(=O)C([C@@H](C)O)NC(=O)C([C@H](O)[C@@H](O)c5ccc(O)cc5)NC(=O)C5C[C@@H](O)CN5C(=O)C([C@@H](C)O)NC4=O)cc3)cc2)cc1 (stereo partly shown) [compound 4] | performed strongly | – | – | – | – | log reduction at 5 mg/kg: 4.47; log reduction at 0.5 mg/kg (Second run, IP 0.5 mg/kg): 1.5; log reduction at 4.5 mg/kg (Second run, IP 4.5 mg/kg): 4.22; Mean log10 CFU/kidneys (±SD): 0.73 ± 0.85 log10 CFU/kidneys; Mean log10 CFU/kidneys (±SEM) (Second run, IP 0.5 mg/kg): 3.38 ± 0.10 log10 CFU/kidneys; Mean log10 CFU/kidneys (±SEM) (Second run, IP 1.5 mg/kg): 0.65 ± 0.38 log10 CFU/kidneys; Mean log10 CFU/kidneys (±SEM) (Second run, IP 4.5 mg/kg): 0.65 ± 0.38 log10 CFU/kidneys |
| CCCCCOc1ccc(-c2ccc(-c3ccc(C(=O)N[C@H]4C[C@@H](O)C(OCCOCC[N+](C)(C)C)NC(=O)C5[C@@H](O)[C@@H](C)CN5C(=O)C([C@@H](C)O)NC(=O)C([C@H](O)[C@@H](O)c5ccc(O)cc5)NC(=O)C5C[C@@H](O)CN5C(=O)C([C@@H](C)O)NC4=O)cc3)cc2)cc1 (stereo partly shown) [compound 6] | performed strongly | – | – | – | – | log reduction at 0.5 mg/kg (Second run, IP 0.5 mg/kg): 0.13; log reduction at 1.5 mg/kg (Second run, IP 1.5 mg/kg): 3.27; log reduction at 4.5 mg/kg (Second run, IP 4.5 mg/kg): 4.87; Mean log10 CFU/kidneys (±SEM) (Second run, IP 0.5 mg/kg): 4.75 ± 0.19 log10 CFU/kidneys; Mean log10 CFU/kidneys (±SEM) (Second run, IP 1.5 mg/kg): 1.60 ± 0.17 log10 CFU/kidneys; Mean log10 CFU/kidneys (±SEM) (Second run, IP 4.5 mg/kg): 0.00 ± 0.00 log10 CFU/kidneys |
| CCCCCOc1ccc(-c2ccc(-c3ccc(C(=O)N[C@H]4C[C@@H](O)C(OCCNCCN)NC(=O)C5[C@@H](O)[C@@H](C)CN5C(=O)C([C@@H](C)O)NC(=O)C([C@H](O)[C@@H](O)c5ccc(O)cc5)NC(=O)C5C[C@@H](O)CN5C(=O)C([C@@H](C)O)NC4=O)cc3)cc2)cc1 (stereo partly shown) [compound 7] | performed strongly | 0.78 | 3.55 | 4.33 ± 0.17 log10 CFU/kidneys | 1.55 ± 0.19 log10 CFU/kidneys | – |
| CCCCCOc1ccc(-c2ccc(-c3ccc(C(=O)N[C@H]4C[C@@H](O)C(NCCOC)NC(=O)C5[C@@H](O)[C@@H](C)CN5C(=O)C([C@@H](C)O)NC(=O)C([C@H](O)[C@@H](O)c5ccc(O)cc5)NC(=O)C5C[C@@H](O)CN5C(=O)C([C@@H](C)O)NC4=O)cc3)cc2)cc1 (stereo partly shown) [compound 8] | performed poorly | 0.32 | 1.66 | 4.78 ± 0.15 log10 CFU/kidneys | 3.45 ± 0.37 log10 CFU/kidneys | – |
| CCCCCOc1ccc(-c2ccc(-c3ccc(C(=O)N[C@H]4C[C@@H](O)C(NCCOCCOC)NC(=O)C5[C@@H](O)[C@@H](C)CN5C(=O)C([C@@H](C)O)NC(=O)C([C@H](O)[C@@H](O)c5ccc(O)cc5)NC(=O)C5C[C@@H](O)CN5C(=O)C([C@@H](C)O)NC4=O)cc3)cc2)cc1 (stereo partly shown) [compound 9] | performed poorly | 0.07 | 1.02 | 5.04 ± 0.13 log10 CFU/kidneys | 4.09 ± 0.23 log10 CFU/kidneys | – |
| CCCCCOc1ccc(-c2ccc(-c3ccc(C(=O)N[C@H]4C[C@@H](O)C(NCCOCCOCCOCCOC)NC(=O)C5[C@@H](O)[C@@H](C)CN5C(=O)C([C@@H](C)O)NC(=O)C([C@H](O)[C@@H](O)c5ccc(O)cc5)NC(=O)C5C[C@@H](O)CN5C(=O)C([C@@H](C)O)NC4=O)cc3)cc2)cc1 (stereo partly shown) [compound 10] | performed poorly | 0.21 | 0.01 | 4.89 ± 0.06 log10 CFU/kidneys | 5.09 ± 0.11 log10 CFU/kidneys | – |
| CCCCCOc1ccc(-c2ccc(-c3ccc(C(=O)N[C@H]4C[C@@H](O)C(NCCOCCO)NC(=O)C5[C@@H](O)[C@@H](C)CN5C(=O)C([C@@H](C)O)NC(=O)C([C@H](O)[C@@H](O)c5ccc(O)cc5)NC(=O)C5C[C@@H](O)CN5C(=O)C([C@@H](C)O)NC4=O)cc3)cc2)cc1 (stereo partly shown) [compound 11] | performed moderately | 0.29 | 2.13 | 4.82 ± 0.20 log10 CFU/kidneys | 2.98 ± 0.03 log10 CFU/kidneys | – |
| CCCCCOc1ccc(-c2ccc(-c3ccc(C(=O)N[C@H]4C[C@@H](O)C(NCCOCCN)NC(=O)C5[C@@H](O)[C@@H](C)CN5C(=O)C([C@@H](C)O)NC(=O)C([C@H](O)[C@@H](O)c5ccc(O)cc5)NC(=O)C5C[C@@H](O)CC5C(=O)C([C@@H](C)O)NC4=O)cc3)cc2)cc1 (stereo partly shown) [compound 12] | performed strongly | 1.9 | 3.5 | 3.20 ± 0.11 log10 CFU/kidneys | 1.60 ± 0.09 log10 CFU/kidneys | – |
| CCCCCOc1ccc(-c2ccc(-c3ccc(C(=O)N[C@H]4C[C@@H](O)C(NCCOCCOCCN)NC(=O)C5[C@@H](O)[C@@H](C)CN5C(=O)C([C@@H](C)O)NC(=O)C([C@H](O)[C@@H](O)c5ccc(O)cc5)NC(=O)C5C[C@@H](O)CC5C(=O)C([C@@H](C)O)NC4=O)cc3)cc2)cc1 (stereo partly shown) [compound 13] | performed moderately | 2.29 | 2.8 | 2.81 ± 0.23 log10 CFU/kidneys | 2.31 ± 0.19 log10 CFU/kidneys | – |
| CCCCCOc1ccc(-c2ccc(-c3ccc(C(=O)N[C@H]4C[C@@H](O)C(NCCOCCOCCOCCN)NC(=O)C5[C@@H](O)[C@@H](C)CN5C(=O)C([C@@H](C)O)NC(=O)C([C@H](O)[C@@H](O)c5ccc(O)cc5)NC(=O)C5C[C@@H](O)CC5C(=O)C([C@@H](C)O)NC4=O)cc3)cc2)cc1 (stereo partly shown) [compound 14] | performed poorly | 0.37 | 0.31 | 4.74 ± 0.17 log10 CFU/kidneys | 4.80 ± 0.34 log10 CFU/kidneys | – |
